Test results as given in the NIST ThermoML archive (doi:10.1016/j.tca.2012.10.004).

Experiments:
[1] = 101 kPa, Liquid, Pycnometric method
[2] = refractive index (Na D-line) (dimensionless); conditions: 101.33 kPa, Liquid, Standard Abbe refractometry
[3] = relative permittivity at zero frequency (dimensionless); conditions: 101 kPa, Liquid, Coaxial cylinder capacitor
[4] = xn = mol fraction of the nth substance listed; conditions: 101 kPa, Liquid, Pycnometric method, x2 = 0
[5] = refractive index (Na D-line) (dimensionless); xn = mol fraction of the nth substance listed; conditions: 101 kPa, Liquid, Standard Abbe refractometry, x2 = 0
[6] = relative permittivity at zero frequency (dimensionless); xn = mol fraction of the nth substance listed; conditions: 101 kPa, Liquid, Coaxial cylinder capacitor, x2 = 0

CN(CCO)CCO [N-methyldiethanolamine]
Conditions | mass density, [1] [kg/m3] | refractive index, [2] | relative permittivity at zero frequency, [3]
293.15 K | 1041.6 | 1.46935 | 22.9
298.15 K | 1037.9 | 1.46724 | 22.4
303.15 K | 1034.1 | 1.46532 | 21.8
308.15 K | 1030.3 | 1.4631 | 21.3
313.15 K | 1026.5 | 1.46074 | 20.8
318.15 K | 1022.7 | 1.45892 | 20.3
323.15 K | 1018.9 | 1.45708 | 19.8
328.15 K | 1015 | 1.45513 | 19.3

O=S1(=O)CCCC1 [sulfolane]
Conditions | mass density, [1] [kg/m3] | refractive index, [2] | relative permittivity at zero frequency, [3]
293.15 K | 1270.8 | 1.4854 | 44.5
298.15 K | 1266.5 | 1.4836 | 44
303.15 K | 1262 | 1.4814 | 43.4
308.15 K | 1257.6 | 1.4796 | 42.8
313.15 K | 1253.2 | 1.478 | 42.2
318.15 K | 1248.7 | 1.4762 | 41.6
323.15 K | 1244.2 | 1.4744 | 41.1
328.15 K | 1240.3 | 1.4726 | 40.4

O=S1(=O)CCCC1 [sulfolane] + CN(CCO)CCO
Conditions | mass density, [4] [kg/m3] | refractive index, [5] | relative permittivity at zero frequency, [6]
293.15 K | 1270.8 | 1.4854 | 44.5
298.15 K | 1266.5 | 1.4836 | 44
303.15 K | 1262 | 1.4814 | 43.4
308.15 K | 1257.6 | 1.4796 | 42.8
313.15 K | 1253.2 | 1.478 | 42.2
318.15 K | 1248.7 | 1.4762 | 41.6
323.15 K | 1244.2 | 1.4744 | 41.1
328.15 K | 1240.3 | 1.4726 | 40.4
